These results are taken from patent US20120316161A1, “NOVEL ANTIVIRAL COMPOUNDS” (KATHOLIEKE UNIVERSITEIT LEUVEN, priority 2009, published 2012).

Molecules are shown by their SMILES. Like-named read-outs stand apart in the source and are kept apart here.

Data set [1] concerns the target T1, LEDGF-integrase interaction (His6-tagged HIV-1 integrase, flag-LEDGF/p75) (Human immunodeficiency virus type 1 group M subtype B, UniProt P04585).
T1 construct: His6-tagged HIV-1 integrase; made in house
The data set can be described thus: AlphaScreen assay of LEDGF-integrase interaction inhibition. Format: binding. Particulars: compound at 100 μM. The procedure: The AlphaScreen assay was performed according to the manufacturer's protocol (Perkin Elmer, Benelux). Reactions were performed in 25 μl final volume in 384-well Optiwell™ microtiter plates (Perkin Elmer). The reaction buffer contained 25 mM Tris-HCl (pH 7.4), 150 mM NaCl, 1 mM MgCl2, 0.01% (v/v) Tween-20 and 0.1% (w/v) bovine serum albumin. His6-tagged integrase (300 nM final concentration) was incubated with the compounds for 30 min at 4° C. The compounds were added at varying concentrations spanning a wide range from 0.1 up to 100 μM. Afterwards 100 nM flag-LEDGF/p75 was added and incubation was prolonged for an additional hour at 4° C. Subsequently 5 μl of Ni-chelate—coated acceptor beads and 5 μl anti-flag donor beads were added to a final concentration of 20 μg/ml of both beads. Proteins and beads were incubated for 1 h at 30° C. in order to allow association to occur. Exposure of the reaction to direct light was omitted as much as possible and the emission of light from the acceptor beads was measured in the EnVision plate reader (Perkin Elmer, Benelux) and analyzed using the EnVision manager software. IN/DNA binding was analyzed in a similar setting using His6-tagged integrase (1 μM final concentration) and an oligodeoxynucleotide mimicking the IN ELISA oligonucleotide substrate (30 nM final concentration). Counterscreens with JPO2 or PogZ, respectively, were essentially performed as described previously. Expression and purification of recombinant proteins: His6-tagged HIV-1 integrase, 3xflag-tagged LEDGF/p75, MBP-JPO2 and MBP-PogZ were purified for AlphaScreen applications as described previously.
In general terms: Bead proximity is the source of the signal in Alpha formats.

The next data set has as its system HIV. The data set can be described thus: microbe, parasite or virus in culture. The format is cell-based. The conditions noted are these: Human immunodeficiency virus 1, MT4. The procedure:
(§1) A rapid and automated assay procedure was used for the in vitro evaluation of anti-HIV agents. An HTLV-1 transformed T4-cell line MT-4, which was previously shown to be highly susceptible to and permissive for HIV infection, served as the target cell line. Inhibition of the HIV-induced cytopathogenic effect was used as the end point. The viability of both HIV-and mock-infected cells was assessed spectrophotometrically via in situ reduction of 3-(4,5-dimethylthiazol-2-yl)-2,5-diphenyltetrazolium bromide (MTT). The 50% cytotoxic concentration (CC50 in μg/ml) was defined as the concentration of compound that reduced the absorbance of the mock-infected control sample by 50%. The percent protection achieved by the compound in HIV-infected cells was calculated by the following formula: […]
whereby (ODT)HIV is the optical density measured with a given concentration of the test compound in HIV-infected cells; (ODC)HIV is the optical density measured for the control untreated HIV-infected cells; (ODC)MOCK is the optical density measured for the control untreated mock-infected cells; all optical density values were determined at 540 nm. The dose achieving 50% protection according to the above formula was defined as the 50% inhibitory concentration (EC50 in μg/ml or μM). The ratio of CC50 to EC50 was defined as the selectivity index (SI). […] Examples of inhibition of cell proliferation by particular compounds of the invention can be found by looking at the respective CC50 values in the MT-4 cell line. Cells: MT-4 cells (Miyoshi et al., 1982) were grown and maintained in RPMI 1640medium supplemented with 10% heat-inactivated fetal calf serum, 2 mM 1-glutamine, 0.1% sodium bicarbonate, and 20æg of gentamicin per ml.
Viruses: The HIV-1 (NL4.3) strain (Adachi et al., 1986) is a molecular clone obtained from the National Institutes of Health (Bethesda, Md.). The HIV-2 (ROD) (Barr, -Sinoussi et al., 1983) stock was obtained from culture supernatant of HIV-2 infected cell lines.

Data set [2] is described as follows: Cytotoxicity in mock-infected MT-4 cells (MTT). The format is cell-based. Particulars: human, mock-infected MT-4 cells. The protocol:
as §1, with “The 50% cytotoxic concentration (CC50 in μg/ml) was defined as the concentration of compound that reduced the absorbance of the mock-infected control sample by 50%.” left out
whereby (ODT)HIV is the optical density measured with a given concentration of the test compound in HIV-infected cells; (ODC)HIV is the optical density measured for the control untreated HIV-infected cells; (ODC)MOCK is the optical density measured for the control untreated mock-infected cells; all optical density values were determined at 540 nm. […] The ratio of CC50 to EC50 was defined as the selectivity index (SI).

Setting [3] is: 50% protection of HIV-infected MT-4 cells, read-out: EC50.

Usually EC50 stands for the concentration that produces a half-maximal response. A word on the CC50: it is the concentration at which the toxic effect on the cells reaches its halfway point. A low value points to greater toxicity to the cells. Turning to `CCCC(C(=O)O)c1c(C)nc2cc(C(C)(C)C)nn2c1-c1ccc(Cl)cc1F` (centres unmarked) [CPD-79, 2-(2-tert-butyl-7-(4-chloro-2-fluorophenyl)-5-methylpyrazolo[1,5-a]pyrimidin-6-yl)pentanoic acid], in data set [1], the “Alpha screen % (100 μM)” value came to 75%. In addition, the EC50 in the data set on HIV (setting [3]) was determined as 1.89 µM. The compound also showed a CC50 in data set [2] of 76 µM.
On to `Cc1ccc(-c2c(C(CCCC(F)(F)F)C(=O)O)c(C)nc3cc(C(C)(C)C)nn23)cc1` (centres unmarked) [CPD-81, 2-(2-tert-butyl-7-p-tolyl-5-methylpyrazolo[1,5-a]pyrimidin-6-yl)-6,6,6-trifluorohexanoic acid], for which, in data set [1], the “Alpha screen % (100 μM)” value is on record as 65%. Besides, in the data set on HIV (setting [3]), the EC50 stood at 16.4 µM. Moreover, the CC50 in data set [2] turned out to be 56 µM.
`CCCC(C(=O)O)c1c(C)nc2cc(C(C)(C)C)nn2c1-c1ccc2c(c1)OCCCO2` (centres unmarked) [CPD-72, 2-(2-tert-butyl-7-(3,4-dihydro-2H-benzo[b][1,4]dioxepin-7-yl)-5-methylpyrazolo[1,5-a]pyrimidin-6-yl)pentanoic acid]: in data set [1], the “Alpha screen % (100 μM)” value was 93%. In addition, in the data set with HIV (setting [3]), the EC50 amounted to 22.6 µM. This compound displayed a CC50 in data set [2] above 125 µM.
The like results for `CCCC(C(=O)O)c1c(C)nc2cc(C(C)(C)C)nn2c1-c1ccc2c(c1)CCCO2` (centres unmarked) [CPD-85] were, in that order, 76%, 2.54 µM and 125 µM.
For the compound `CCCC(C(=O)O)c1c(C)nc2nc(C(C)C)nn2c1-c1ccc(C)cc1` (centres unmarked) [CPD-121, 2-(2-isopropyl-5-methyl-7-p-tolyl-[1,2,4]-triazolo[1,5-a]pyrimidin-6-yl)pentanoic acid], the EC50 with HIV (setting [3]) came out at 124 µM. In addition, the CC50 in data set [2] was above 250 µM.
As for `CCCC(C(=O)O)c1c(C)nc2cc(C(C)(C)C)nn2c1-c1ccc(C)cc1Cl` (centres unmarked) [CPD-92, 2-(2-tert-butyl-7-(2-chloro-4-methylphenyl)-5-methylpyrazolo[1,5-a]pyrimidin-6-yl)pentanoic acid], in data set [1], the “Alpha screen % (100 μM)” value is recorded as 95%. The EC50 in the data set on HIV (setting [3]) was 9.13 µM. Moreover, in data set [2], the CC50 worked out at 60.5 µM.
As for `CCCC(C(=O)O)c1c(C)nc2c(nc(C)n2C)c1-c1ccc(C)cc1` (centres unmarked) [CPD-105, 2-(2,3,5-Trimethyl-7-p-tolyl-3H-imidazo[4,5-b]pyridin-6-yl)pentanoic acid], in the data set on HIV (setting [3]), the EC50 stood at 23.2 µM. The compound also displayed a CC50 in data set [2] of 235 µM.
In the case of `CCCC(C(=O)O)c1c(C)nc2ccnn2c1-c1ccc(C)cc1` (centres unmarked) [CPD-57, 2-(5-methyl-7-p-tolylpyrazolo[1,5-a]pyrimidin-6-yl)pentanoic acid], in data set [1], the “Alpha screen % (100 μM)” value turned out to be 84%. In addition, the EC50 in the data set with HIV (setting [3]) is 192 µM. For the same compound, the CC50 in data set [2] was above 250 µM.
For `CCCC(C(=O)O)c1c(C)nc2cc(C(C)(C)C)nn2c1-c1ccc(Cl)cc1` (centres unmarked) [CPD-69, 2-(2-tert-butyl-7-(4-chlorophenyl)-5-methylpyrazolo[1,5-a]pyrimidin-6-yl)pentanoic acid], in data set [1], the “Alpha screen % (100 μM)” value is 93%. In addition, the EC50 in the data set with HIV came to 1.61 µM. In data set [2], this compound returned a CC50 of 40.3 µM.
On to `CCCC(C(=O)O)c1c(C)nc2c(Cl)c(C(C)(C)C)nn2c1-c1ccc(C)cc1` (centres unmarked) [CPD-87, 2-(2-tert-butyl-3-chloro-7-p-tolyl-5-methylpyrazolo[1,5-a]pyrimidin-6-yl)pentanoic acid], for which the “Alpha screen % (100 μM)” value in data set [1] is 67%. The EC50 in the data set on HIV (setting [3]) turned out to be 2.33 µM. This compound also returned a CC50 in data set [2] of 38.3 µM.
As for `CCCC(C(=O)O)c1c(C)nc2cc(C(C)(C)C)nn2c1-c1ccc(C)cc1C` (centres unmarked) [CPD-98, 2-(2-tert-butyl-7-(2,4-dimethylphenyl)-5-methylpyrazolo[1,5-a]pyrimidin-6-yl)pentanoic acid], the “Alpha screen % (100 μM)” value in data set [1] is on record as 89%. Moreover, in the data set with HIV, the EC50 stood at 5.91 µM. In data set [2], the CC50 was 69 µM.
As to `CCCC(C(=O)O)c1c(C)nc2cc(-c3ccccc3)nn2c1-c1ccc(C)cc1` (centres unmarked) [CPD-61, 2-(5-methyl-2-phenyl-7-p-tolylpyrazolo[1,5-a]pyrimidin-6-yl)pentanoic acid], the “Alpha screen % (100 μM)” value in data set [1] is 94%. Also, the EC50 in the data set with HIV (setting [3]) was 30.2 µM. In addition, the CC50 in data set [2] amounted to 104 µM.
As for `CCCC(C(=O)O)c1c(C)nc2cc(C(C)(C)C)nn2c1-c1ccc(C(C)C)cc1` (centres unmarked) [CPD-89, 2-(2-tert-butyl-5-methyl-7-(4-iso-propylphenyl)pyrazolo[1,5-a]pyrimidin-6-yl)pentanoic acid], in data set [1], the “Alpha screen % (100 μM)” value was found to be 89%. In addition, the EC50 with HIV turned out to be 24 µM. Further, the midpoint of cytotoxicity in data set [2], the CC50, lay at 139 µM.
As for `CCCC(C(=O)O)c1c(C)nc2cc(C(C)(C)C)nn2c1-c1ccc2sccc2c1` (centres unmarked) [CPD-67, 2-(7-(benzo[b]thiophen-5-yl)-2-tert-butyl-5-methylpyrazolo[1,5-a]pyrimidin-6-yl)pentanoic acid], the “Alpha screen % (100 μM)” value in data set [1] is reported as 93%. In addition, in the data set on HIV (setting [3]), the EC50 was found to be 2.94 µM. Moreover, the CC50 in data set [2] was 70 µM.
Regarding `CCCC(C(=O)O)c1c(C)nc2cc(C(C)(C)C)nn2c1-c1ccc(C)cc1N` (centres unmarked) [CPD-93, 2-(7-(2-amino-4-methylphenyl)-2-tert-butyl-5-methylpyrazolo[1,5-a]pyrimidin-6-yl)pentanoic acid], the “Alpha screen % (100 μM)” value in data set [1] is 90%. This compound registered an EC50 with HIV of 7.4 µM. Also, the CC50 in data set [2] worked out at 119 µM.
As to `CCCC(C(=O)O)c1c(C)nc2cc(C(C)(C)C)nn2c1-c1ccc2occc2c1` (centres unmarked) [CPD-66, 2-(7-(benzofuran-5-yl)-2-tert-butyl-5-methylpyrazolo[1,5-a]pyrimidin-6-yl)pentanoic acid], the “Alpha screen % (100 μM)” value in data set [1] is reported as 92%. Moreover, in the data set on HIV (setting [3]), the EC50 stood at 10.5 µM. The compound also returned a CC50 in data set [2] of 99 µM.
Consider `CCCc1cc2nc(C)c(C(CCC)C(=O)O)c(-c3ccc(C)cc3)n2n1` (centres unmarked) [CPD-77, 2-(5-methyl-2-propyl-7-p-tolylpyrazolo[1,5-a]pyrimidin-6-yl)pentanoic acid], for which, in data set [1], the “Alpha screen % (100 μM)” value is recorded as 83%. Besides, the EC50 in the data set on HIV (setting [3]) came to 28.1 µM. Besides, the CC50 in data set [2] amounted to 203 µM.
Turning to `CCCC(C(=O)O)c1c(C)nc2cc(C(C)(C)C)nn2c1-c1ccc(C(F)(F)F)cc1` (centres unmarked) [CPD-90, 2-(2-tert-butyl-5-methyl-7-(4-trifluoromethylphenyl)pyrazolo[1,5-a]pyrimidin-6-yl)pentanoic acid], in data set [1], the “Alpha screen % (100 μM)” value was found to be 70%. Also, the EC50 in the data set on HIV (setting [3]) worked out at 6.15 µM. In data set [2], this compound returned a CC50 of 22 µM.
With `CCCC(C(=O)O)c1c(C)nc2c(Br)c(C(C)(C)C)nn2c1-c1ccc(C)cc1` (centres unmarked) [CPD-60, 2-(3-bromo-2-tert-butyl-5-methyl-7-p-tolylpyrazolo[1,5-a]pyrimidin-6-yl)pentanoic acid], the “Alpha screen % (100 μM)” value in data set [1] was determined as 92%. Also, the EC50 with HIV (setting [3]) came to 2.39 µM. Also, the midpoint of cytotoxicity in data set [2], the CC50, lay at 56.3 µM.
The compound `CCC(C)C(C(=O)O)c1c(C)nc2cc(C(C)(C)C)nn2c1-c1ccc(C)cc1` (centres unmarked) [CPD-86, 2-(2-tert-butyl-7-p-tolyl-5-methylpyrazolo[1,5-a]pyrimidin-6-yl)-3-methylpentanoic acid] displayed a CC50 in data set [2] of 77 µM.
